Measurements: PubChem BioAssay AID256 (DTP/NCI, 2004)
“And” between values parts separate entries of the source, which are not always exact repeats. Identical values can stand only once. Inconclusive results and toxic doses are left out. Rule for the calls: active = survival T/C of 150% or more; inactive = T/C below 125% in these data.

Test system: CD2F1 mice, L1210 leukemia ip, survival T/C
Assay: NCI In Vivo Anticancer Drug Screen. Data for tumor model L1210 Leukemia (intraperitoneal) in CD2F1 (CDF1) mice
Conditions: higher = longer survival
Outline: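 Implant tumor; dose compound or vehicle; measure endpoint in both groups; report treated divided by control.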

[1] = endpoint: mean survival time, dose: 100.0 mg/kg/injection, schedule: Q01DX009 (ip), vehicle: saline with Tween-80
[2] = endpoint: mean survival time, dose: 200.0 mg/kg/injection, schedule: Q01DX009 (ip), vehicle: saline with Tween-80
[3] = endpoint: mean survival time, dose: 400.0 mg/kg/injection, schedule: Q01DX009 (ip), vehicle: saline with Tween-80
[4] = endpoint: mean survival time, dose: 100.0 mg/kg/injection, schedule: Q04DX002 (ip), vehicle: saline with Tween-80
[5] = endpoint: mean survival time, dose: 200.0 mg/kg/injection, schedule: Q04DX002 (ip), vehicle: saline with Tween-80
[6] = endpoint: mean survival time, dose: 400.0 mg/kg/injection, schedule: Q04DX002 (ip), vehicle: saline with Tween-80
[7] = endpoint: mean survival time, dose: 100.0 mg/kg/injection, schedule: Q04DX003 (ip), vehicle: saline with Tween-80
[8] = endpoint: mean survival time, dose: 200.0 mg/kg/injection, schedule: Q04DX003 (ip), vehicle: saline with Tween-80
[9] = endpoint: mean survival time, dose: 400.0 mg/kg/injection, schedule: Q04DX003 (ip), vehicle: saline with Tween-80
[10] = endpoint: mean survival time, dose: 100.0 mg/kg/injection, schedule: Q01DX009 (ip), vehicle: saline
[11] = endpoint: mean survival time, dose: 200.0 mg/kg/injection, schedule: Q01DX009 (ip), vehicle: saline
[12] = endpoint: mean survival time, dose: 400.0 mg/kg/injection, schedule: Q01DX009 (ip), vehicle: saline
[13] = endpoint: mean survival time, dose: 100.0 mg/kg/injection, schedule: Q01DX001 (ip), vehicle: saline with Tween-80
[14] = endpoint: mean survival time, dose: 200.0 mg/kg/injection, schedule: Q01DX001 (ip), vehicle: saline with Tween-80
[15] = endpoint: mean survival time, dose: 400.0 mg/kg/injection, schedule: Q01DX001 (ip), vehicle: saline with Tween-80
[16] = endpoint: mean survival time, dose: 100.0 mg/kg/injection, schedule: Q04DX003 (ip), vehicle: saline
[17] = endpoint: mean survival time, dose: 200.0 mg/kg/injection, schedule: Q04DX003 (ip), vehicle: saline
[18] = endpoint: mean survival time, dose: 400.0 mg/kg/injection, schedule: Q04DX003 (ip), vehicle: saline

Measured: T/C

COC(=O)C(CS)NC(=O)CCNC(C)=O (centres undefined)
inactive: endpoint: mean survival time, dose: 12.5 mg/kg/injection, schedule: Q01DX009 (ip), vehicle: water 97 % of control | endpoint: mean survival time, dose: 25.0 mg/kg/injection, schedule: Q01DX009 (ip), vehicle: water 100 % of control | endpoint: mean survival time, dose: 50.0 mg/kg/injection, schedule: Q01DX009 (ip), vehicle: water 97 % of control | endpoint: mean survival time, dose: 100.0 mg/kg/injection, schedule: Q01DX009 (ip), vehicle: water 104 % of control | endpoint: mean survival time, dose: 200.0 mg/kg/injection, schedule: Q01DX009 (ip), vehicle: water 100 % of control

COC(=O)C1(C)CCCC2(C)C1CCC13OC1C(C(C)C)=CCC23 (centres undefined)
inactive: [1] 104 % of control | [2] 97 % of control | [3] 101 % of control

O=C(O)C1C(=O)CC2(O)c3ccccc3-c3ccccc3C12 (centres undefined)
inactive: endpoint: mean survival time, dose: 100.0 mg/kg/injection, schedule: Q01DX001 (ip), vehicle: Klucel (hydroxypropylcellulose) (HPC) 98 % of control | [4] 96 % of control | endpoint: mean survival time, dose: 200.0 mg/kg/injection, schedule: Q01DX001 (ip), vehicle: Klucel (hydroxypropylcellulose) (HPC) 94 % of control | [5] 93 % of control | endpoint: mean survival time, dose: 400.0 mg/kg/injection, schedule: Q01DX001 (ip), vehicle: Klucel (hydroxypropylcellulose) (HPC) 94 % of control | [6] 93 % of control

Cc1n[nH]c2ccc([N+](=O)[O-])cc2c1=O
inactive: [1] 89 % of control

CCOC(=O)CCC1(C(=O)OC)C(=O)CCCCC/C=C/1C(=O)OC (centres undefined)
inactive: [1] 101 % of control | [2] 93 % of control | [3] 96 % of control

N=Cc1c(O)n(C2CCCCC2)c(=O)[nH]c1=O
inactive: [1] 98 % of control | [7] 93 % of control | [2] 94 % of control | [8] 93 % of control | [3] 98 % of control | [9] 91 % of control

CCCCCOC(=O)COc1ccc(F)cc1F
inactive: [4] 101 % of control | [5] 105 % of control | [6] 90 % of control

Cc1ccc(S(=O)(=O)OC2C3OCC(O3)C(O)C2O)cc1 (centres undefined)
inactive: [7] 97 % of control | [8] 94 % of control | [9] 94 % of control

CC1CC(=O)OC2CC(C)(C)CC(=O)C12 (centres undefined)
inactive: [10] 104 % of control | endpoint: mean survival time, dose: 100.0 mg/kg/injection, schedule: Q04DX003 (ip), vehicle: saline sonified 98 % of control | [11] 106 % of control | endpoint: mean survival time, dose: 200.0 mg/kg/injection, schedule: Q04DX003 (ip), vehicle: saline sonified 95 % of control | [12] 104 % of control | endpoint: mean survival time, dose: 400.0 mg/kg/injection, schedule: Q04DX003 (ip), vehicle: saline sonified 95 % of control

CC(=O)Nc1ncc2ccccc2c1-c1ccc(NC(=O)CCCl)cc1
inactive: endpoint: mean survival time, dose: 25.0 mg/kg/injection, schedule: Q04DX003 (ip), vehicle: DMSO 101 % of control | endpoint: mean survival time, dose: 50.0 mg/kg/injection, schedule: Q04DX003 (ip), vehicle: DMSO 96 % of control | endpoint: mean survival time, dose: 100.0 mg/kg/injection, schedule: Q04DX003 (ip), vehicle: DMSO 94 % of control | endpoint: mean survival time, dose: 200.0 mg/kg/injection, schedule: Q04DX003 (ip), vehicle: DMSO 91 % of control | endpoint: mean survival time, dose: 400.0 mg/kg/injection, schedule: Q04DX003 (ip), vehicle: DMSO 94 % of control

CCC(=O)Nc1ccccc1OS(=O)(=O)N(C)C
inactive: [8] 97 % of control | [9] 98 % of control

O=S(=O)(C(Br)CBr)C(Br)CBr (centres undefined)
inactive: [7] 95 % of control

O=C1C(Br)=CC2C1C1C=CC2(Br)C1=O (centres undefined)
inactive: endpoint: mean survival time, dose: 50.0 mg/kg/injection, schedule: Q01DX001 (ip), vehicle: saline with Tween-80 109 % of control | [13] 103 % of control | [14] 101 % of control

N/N=C(\C(=N\N)c1ccccc1)c1ccccc1
inactive: [7] 95 % of control | [8] 93 % of control | [9] 89 % of control

O=C(O)c1ccc(NC(=S)NC(=O)c2cccc(Br)c2)cc1
inactive: [13] 97 % of control | [1] 95 % of control and 97 % of control | [4] 95 % of control | [7] 100 % of control | [14] 88 % of control and 101 % of control | [2] 95 % of control and 101 % of control | [5] 94 % of control and 103 % of control | [8] 90 % of control | [15] 92 % of control and 95 % of control | [3] 86 % of control | [6] 97 % of control and 106 % of control | [9] 93 % of control

NC(=O)N(CCO)CCO
inactive: [10] 111 % of control | [11] 107 % of control | [12] 101 % of control

S=c1nccc[nH]1
inactive: [4] 105 % of control

C=CCc1ccccc1OC
inactive: [16] 95 % of control | [17] 104 % of control | [18] 95 % of control

CC(C)c1ccc(C(O)C2CC2)cc1 (centres undefined)
inactive: endpoint: mean survival time, dose: 50.0 mg/kg/injection, schedule: Q01DX009 (ip), vehicle: saline 100 % of control | [10] 100 % of control | [11] 96 % of control

O=C1c2ccccc2C(=O)c2c1cn1c2Cc2ccccc2C1
inactive: endpoint: median survival time, dose: 9.0 mg/kg/injection, schedule: Q01DX005 (ip), vehicle: Klucel (hydroxypropylcellulose) (HPC) 106 % of control | endpoint: median survival time, dose: 9.37 mg/kg/injection, schedule: Q01DX005 (ip), vehicle: other 106 % of control and 107 % of control | endpoint: median survival time, dose: 12.5 mg/kg/injection, schedule: Q01DX005 (ip), vehicle: Klucel (hydroxypropylcellulose) (HPC) 110 % of control | endpoint: median survival time, dose: 15.0 mg/kg/injection, schedule: Q01DX005 (ip), vehicle: Klucel (hydroxypropylcellulose) (HPC) 109 % of control | endpoint: median survival time, dose: 18.75 mg/kg/injection, schedule: Q01DX005 (ip), vehicle: other 114 % of control and 103 % of control | endpoint: median survival time, dose: 25.0 mg/kg/injection, schedule: Q01DX005 (ip), vehicle: Klucel (hydroxypropylcellulose) (HPC) 107 % of control | endpoint: median survival time, dose: 37.5 mg/kg/injection, schedule: Q01DX005 (ip), vehicle: other 114 % of control and 111 % of control | endpoint: median survival time, dose: 41.66 mg/kg/injection, schedule: Q01DX005 (ip), vehicle: Klucel (hydroxypropylcellulose) (HPC) 114 % of control | endpoint: median survival time, dose: 50.0 mg/kg/injection, schedule: Q01DX005 (ip), vehicle: Klucel (hydroxypropylcellulose) (HPC) 108 % of control | endpoint: median survival time, dose: 69.44 mg/kg/injection, schedule: Q01DX005 (ip), vehicle: Klucel (hydroxypropylcellulose) (HPC) 106 % of control | endpoint: median survival time, dose: 75.0 mg/kg/injection, schedule: Q01DX005 (ip), vehicle: other 114 % of control and 98 % of control | endpoint: median survival time, dose: 100.0 mg/kg/injection, schedule: Q01DX005 (ip), vehicle: Klucel (hydroxypropylcellulose) (HPC) 122 % of control | endpoint: median survival time, dose: 150.0 mg/kg/injection, schedule: Q01DX005 (ip), vehicle: other 110 % of control | endpoint: median survival time, dose: 200.0 mg/kg/injection, schedule: Q01DX005 (ip), vehicle: Klucel (hydroxypropylcellulose) (HPC) 107 % of control

CCCCCCCCCCCCCCCCCC[Se]CCCCCCCCCCCCCCCCCC
inactive: [1] 89 % of control | [2] 91 % of control | [3] 95 % of control

COc1cc(OC)c(NC(=O)Oc2c(Cl)cccc2Cl)cc1Cl
inactive: endpoint: mean survival time, dose: 50.0 mg/kg/injection, schedule: Q01DX009 (ip), vehicle: saline with Tween-80 94 % of control | [1] 97 % of control

COC(=O)C/C(=C/C=C1/C(=O)ON=C1C)c1c(C)[nH]oc1=O
inactive: [10] 87 % of control | [16] 101 % of control | [11] 92 % of control | [17] 106 % of control | [12] 87 % of control | [18] 108 % of control

CN(Cc1ccccc1)C(c1ccccc1)C(O)C(O)(c1ccccc1)c1ccccc1 (centres undefined)
inactive: endpoint: mean survival time, dose: 100.0 mg/kg/injection, schedule: Q04DX003 (ip), vehicle: acetone 97 % of control | endpoint: mean survival time, dose: 200.0 mg/kg/injection, schedule: Q04DX003 (ip), vehicle: acetone 97 % of control | endpoint: mean survival time, dose: 400.0 mg/kg/injection, schedule: Q04DX003 (ip), vehicle: acetone 90 % of control

CCCCCCCCCCCC[Si](CCCCCCCCCCCC)(c1ccccc1)c1ccccc1
inactive: [7] 103 % of control | [8] 93 % of control | [9] 93 % of control

O=C1C(Br)=C(c2ccccc2)C(=O)C(Br)=C1c1ccccc1
inactive: endpoint: mean survival time, dose: 100.0 mg/kg/injection, schedule: Q04DX002 (ip), vehicle: Klucel (hydroxypropylcellulose) (HPC) 90 % of control | endpoint: mean survival time, dose: 200.0 mg/kg/injection, schedule: Q04DX002 (ip), vehicle: Klucel (hydroxypropylcellulose) (HPC) 86 % of control | endpoint: mean survival time, dose: 400.0 mg/kg/injection, schedule: Q04DX002 (ip), vehicle: Klucel (hydroxypropylcellulose) (HPC) 90 % of control

N#CCCCSc1ccccc1
inactive: endpoint: mean survival time, dose: 100.0 mg/kg/injection, schedule: Q01DX001 (ip), vehicle: saline 96 % of control | endpoint: mean survival time, dose: 200.0 mg/kg/injection, schedule: Q01DX001 (ip), vehicle: saline 106 % of control

NCC1OC(CO)C(O)C1O (centres undefined)
inactive: [16] 91 % of control | [17] 100 % of control | [18] 104 % of control

Cc1ccc(S(=O)(=O)OCC(O)C(O)C(O)C(O)CO[N+](=O)[O-])cc1 (centres undefined)
inactive: [13] 101 % of control | [14] 101 % of control | [15] 101 % of control
